We go through four molecules from patent US10314909B2, “Combination therapy comprising an MMP-14 binding protein” (DYAX CORP., priority 2011, dated 2019).

Common to all, as to format: in vivo
In experiment [1] the test system is SK-MEL-5 human melanoma xenograft. As to the kind of experiment: subcutaneous SK-MEL-5 human melanoma xenograft model, tumor size. The note with it: BALB/c nude mice, s.c. SK-MEL-5, DX-2400 20 mg/kg i.v. Q3D X6, paclitaxel 8 mg/kg i.p. Q4D X6; for tumor growth rate: compared to untreated mice; for tumor volume: compared to untreated mice (FIG. 2). As for the experimental part: The in vivo therapeutic efficacy of DX-2400 as a single agent or in combination with Paclitaxel in the treatment of human melanoma was evaluated using a subcutaneous SK-MEL-5 human melanoma xenograft model.
SK-MEL-5 human melanoma cells were grown in EMEM medium, supplemented with 10% heat inactivated fetal bovine serum, 100 U/ml penicillin and 100 μg/ml streptomycin at 37° C. in an atmosphere of 5% CO2 in air. The tumor cells were routinely subcultured twice weekly. Cells were harvested during the logarithmic growth period and resuspended in physical PBS with proper cell concentration and kept on ice for tumor induction.
55 BALB/c nude, female, 6-8 weeks, weighing approximately 18-22 g (40 mice+˜40% spare) were used for the study. Animals were purchased from Shanghai Laboratory Animal Center SLAC (Shanghai, China, Shanghai). Each mouse was inoculated subcutaneously at the right flank with SK-MEL-5 tumor cells (5×10^6) in 0.1 ml of PBS for tumor development. The treatments were started when the mean tumor size reached approximately 150˜200 mm^3. Each group consisted of 10 mice.
(§1) The major endpoint is to see if the tumor growth can be delayed or tumor bearing mice can be cured. Tumor sizes were measured twice weekly in two dimensions using a caliper, and the volume was expressed in mm^3 using the formula: V=0.5 a×b^2 where a and b are the long and short diameters of the tumor, respectively. The tumor sizes were then used for the calculations of both T-C and T/C values. T-C is calculated with T as the time (in days) required for the mean tumor size of the treatment group to reach a predetermined size (e.g., 1000 mm^3), and C is the time (in days) for the mean tumor size of the control group to reach the same size. The T/C value (in percent) is an indication of antitumor effectiveness, T and C are the mean volume of the treated and control groups, respectively, on a given day.

For experiment [2], the system named is A375 human melanoma xenograft. Nature of the experiment: subcutaneous A375 human melanoma xenograft model, tumor size. To be noted: BALB/c nude mice, s.c. A375, DX-2400 20 mg/kg i.v. Q3D X6; for tumor volume: darcabazine 150 mg/kg i.p. Day 1, 4/wk x 3, compared to untreated mice (FIG. 1); for tumor growth rate: darcabazine 150 mg/kg i.p., compared to untreated mice. As for the experimental part: The in vivo therapeutic efficacy of DX-2400 as a single agent or in combination with darcabazine was determined using a subcutaneous A375 human melanoma xenograft model.
A375 tumor cells were maintained in vitro as a monolayer culture in DMEM medium, supplemented with 10% heat inactivated fetal bovine serum, 100 U/ml penicillin and 100 μg/ml streptomycin, and L-glutamine (2 mM) at 37° C. in an atmosphere of 5% CO2 in air. The tumor cells were routinely subcultured twice weekly by trypsin-EDTA treatment. The cells growing in an exponential growth phase were harvested and counted for tumor inoculation.
55 BALB/c nude, female, 6-8 weeks, weighing approximately 18-22 were purchased from Shanghai Laboratory Animal Center SLAC (Shanghai, China) for use in the study (40 mice+˜40% spare). Each mouse was inoculated subcutaneously at the right flank with A375 tumor cells (5×10^6) in 0.1 ml of PBS for tumor development. The treatments were started when the mean tumor size reached approximately 150˜200 mm^3. Each group consisted of 10 mice.
as §1

For experiment [3], the system named is primary human pancreatic cancer PAM527 xenograft. Nature of the experiment: subcutaneous primary human pancreatic cancer PAM527 xenograft model in nude mice, tumor size. To be noted: BALB/c nude mice, s.c. PAM527 tumor fragment; DX-2400 20 mg/kg i.v. Q3d x 6; gemcitabine 60 mg/kg i.p. Q4d x 4; compared to untreated mice (FIG. 3A). As for the experimental part: The in vivo anti-tumor activity of DX-2400 as a single agent or in combination with gemcitabine was evaluated in the treatment of subcutaneous primary human pancreatic cancer using a PAM527 xenograft model in nude mice.
75 BALB/c nude mice, female, 6-8 weeks, weighing approximately 18-24 g were purchased from SLAC, Shanghai, P. R. China (40 mice+˜90% spare). Tumor fragments from seed mice inoculated with selected primary human pancreatic cancer tissues (PAM527) were harvested and used for inoculation into BALB/c nude mice. Each mouse was inoculated subcutaneously at the right flank with one tumor fragment (2-3 mm in diameter) for tumor development. The treatments were started when the mean tumor size reached approximately 150 mm^3. Each group consisted of 10 mice.
(§2) The major endpoint is to see if the tumor growth can be delayed or tumor bearing mice can be cured. Tumor sizes were measured twice weekly in two dimensions using a caliper, and the volume was expressed in mm^3 using the formula: V=0.5 a×b^2 where a and b are the long and short diameters of the tumor, respectively. […] T-C is calculated with T as the time (in days) required for the mean tumor size of the treatment group to reach a predetermined size (e.g., 1000 mm^3), and C is the time (in days) for the mean tumor size of the control group to reach the same size. […]

Experiment [4] concerns Panc-1 human pancreas cancer xenograft. As to the kind of experiment: subcutaneous Panc-1 human pancreas cancer xenograft model, tumor size. To be noted: BALB/c nude mice, s.c. Panc-1; DX-2400 20 mg/kg i.v. Q3D X6; gemcitabine 50 mg/kg i.p. Q3D X4; compared to untreated mice (FIG. 4A). As for the experimental part: The in vivo therapeutic efficacy of DX-2400 as a single agent or in combination with gemcitabine was evaluated in the treatment of a subcutaneous Panc-1 human pancreas cancer xenograft model.
Panc-1 tumor cells were maintained in vitro as a monolayer culture in DMEM medium, supplemented with 10% heat inactivated fetal bovine serum, 100 U/ml penicillin and 100 μg/ml streptomycin, and L-glutamine (2 mM) at 37° C. in an atmosphere of 5% CO2 in air. The tumor cells will be routinely subcultured twice weekly by trypsin-EDTA treatment. The cells growing in an exponential growth phase will be harvested and counted for tumor inoculation.
A total of 56 (40 plus 40% spare) BALB/c nude, female, 6-8 weeks, weighing approximately 18-22 g were purchased from Shanghai Laboratory Animal Center SLAC (Shanghai, China) for use in the study. […]
as §2

On to `CC(=O)O[C@H]1C(=O)[C@@]2(C)[C@H]([C@H](OC(=O)c3ccccc3)[C@]3(O)C[C@H](OC(=O)[C@H](O)[C@@H](NC(=O)c4ccccc4)c4ccccc4)C(C)=C1C3(C)C)[C@]1(OC(C)=O)CO[C@@H]1C[C@@H]2O` [paclitaxel], for which, in experiment [1], the tumor growth rate entry is “caused a reduction in tumor growth rate” and the tumor volume entry is recorded as “reduced tumor volume”.
With `CN(C)/N=N/c1[nH]cnc1C(N)=O` [darcabazine, dacarbazine], in experiment [2], the tumor volume result was “reduced tumor volume” and the tumor growth rate result was “caused a reduction in tumor growth rate”.
Turning to `Nc1ccn([C@@H]2O[C@H](CO)[C@@H](O)C2(F)F)c(=O)n1` [gemcitabine], the mean tumor size result in experiment [3] and in experiment [4] was “reduced the tumor size” each time.

B1: DX-2400: human anti-MMP-14 antibody, light and heavy chains of M0038-F01; VH SEQ ID NO: 51, VL SEQ ID NO: 52 (antibody, listed as Homo sapiens, V domains shown)
VH: EVQLLESGGGLVQPGGSLRLSCAASGFTFSLYSMNWVRQAPGKGLEWVSSIYSSGGSTLYADSVKGRFTISRDNSKNTLYLQMNSLRAEDTAVYYCARGRAFDIWGQGTMVTVSS
VL: DIQMTQSPSSLSASVGDRVTITCRASQSVGTYLNWYQQKPGKAPKLLIYATSNLRSGVPSRFSGSGSGTDFTLTISSLQPEDFATYYCQQSYSIPRFTFGPGTKVDIK
As for B1, the mean tumor size result in experiment [3] and in experiment [4] was “reduced the mean tumor size” throughout. Besides, the tumor growth rate entry in experiment [1] and in experiment [2] was “caused a reduction in the tumor growth rate” each time. Besides, the tumor volume result in experiment [1] and in experiment [2] was “reduced tumor volume” each time.
